Data on eleven molecules can be found in ChEMBL document CHEMBL1201862, “PubChem BioAssay data set” (2004).

Holding throughout (assay): DTP human tumour cell line panel, 48 h
Experiment [1] concerns 786-0.
Experiment [2] has as its system CAKI-1.
Experiment [3] concerns DLD-1.
Experiment [4] deals with HCC 2998.
Experiment [5] relates to HOP-62.
Experiment [6] relates to HOP-92.
For experiment [7], the system named is NCI-H23.
Experiment [8] has as its system NCI-H460.
Experiment [9] deals with OVCAR-4.
The subject of experiment [10] is OVCAR-5.
The subject of experiment [11] is SK-MEL-5.
For experiment [12], the system named is SNB-75.
The test system of experiment [13] is SR.
Experiment [14] relates to U-251.
In experiment [15] the test system is UACC-257.
For experiment [16], the system named is UACC-62.
Experiment [17] concerns UO-31.
Experiment [18] concerns MDA-MB-435.
Experiment [19] concerns T47D.
In experiment [20] the test system is MDA-N.

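Cultured in 96-well plates, cells were exposed to test compound for 48 hours across five concentrations. The concentration for 50% growth inhibition is given as GI50.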 Activity calls are given as the source filed them. No stated cut-off is given here; in the data, active = GI50 up to about 1.1 µM and inactive = higher.

What is called GI50 is the concentration that inhibits growth by half. For `C=CC(=O)N1C/C(=C\c2ccc(Cl)c(Cl)c2)C(=O)/C(=C/c2ccc(Cl)c(Cl)c2)C1`, the GI50 in experiment [1] was 0.0579 µM (active); in [2], 0.244 µM (active); in [3], 0.0374 µM (active); in experiment [4], 0.204 µM (active); in [5] it was 0.264 µM (active); in experiment [6], 1.19 µM (inactive). For the same molecule, the GI50 in [7] was 0.2 µM (active); in experiment [8], 0.152 µM (active); in [9], 0.0318 µM (active); in experiment [10] it was 0.294 µM (active); in experiment [11], 0.478 µM (active); in [12], 0.187 µM (active). Besides, the GI50 in experiment [13] is 0.0259 µM (active); in experiment [14] it was 0.0226 µM (active); in [15], 0.474 µM (active); in experiment [16], 0.298 µM (active); in experiment [17], 0.207 µM (active).

As to `Oc1ccc2c(O)cc(-c3ccccc3)nc2c1`, the GI50 is 31.2 µM (inactive) in [1]; 24.4 µM (inactive) in experiment [2]; 18.3 µM (inactive) in experiment [3]; 34 µM (inactive) in experiment [4]; 28.2 µM (inactive) in experiment [5]; 29.3 µM (inactive) in experiment [6]. The GI50 in experiment [7] was 36.4 µM (inactive); in experiment [8] it was 17.8 µM (inactive); in [9] it was 26 µM (inactive); in experiment [10], 58.9 µM (inactive); in [11] it was 30.1 µM (inactive); in [12], 22.1 µM (inactive). Also, the GI50 in experiment [13] is 38.1 µM (inactive); in [14], 31.3 µM (inactive); in [15], 21.7 µM (inactive); in experiment [16], 19.9 µM (inactive); in experiment [17], 19.3 µM (inactive).

Consider `Cc1cc2c(c3oc(C4(C)OC4C4OC4C)cc(=O)c13)C(=O)c1c(O)c(C3CC(C)(N(C)C)C(O)C(C)O3)cc(C3CC(N(C)C)C(O)C(C)O3)c1C2=O` (configuration not stated), for which the GI50 in [1] was 0.000129 µM (active); in experiment [2], 5.46e-05 µM (active); in experiment [3], 0.0025 µM (active); in [4] it was 0.00014 µM (active); in experiment [5], 5.79e-05 µM (active); in experiment [6], 0.000733 µM (active). Besides, the concentration for 50% growth inhibition (GI50) in experiment [18] was 0.0923 nM (active); in [7] it was 0.0025 µM (active); in experiment [8], 0.0025 µM (active); in experiment [10], 8.95e-05 µM (active); in [11] it was 0.00112 µM (active); in experiment [13], 6.17e-05 µM (active). Also, the GI50 was 0.00018 µM (active) in experiment [19]; 4.1e-05 µM (active) in experiment [14]; 0.000116 µM (active) in [15]; 6.43e-05 µM (active) in [16]; 0.000557 µM (active) in [17].

As to `Cc1ccc(S(=O)OC2C3CC4CC(C3)CC2C4)cc1` (configuration not stated), the GI50 in experiment [1], in [2], in [3], in experiment [4], in experiment [5] and in experiment [6] was > 100 µM (inactive) each time. The GI50 in experiment [7], in experiment [8], in experiment [9], in experiment [10], in experiment [11] and in [12] was > 100 µM (inactive) throughout. The GI50 in experiment [13], in [14], in [15], in experiment [16] and in experiment [17] was > 100 µM (inactive) each time.

`CN/N=C(\C(=O)Nc1ccc([N+](=O)[O-])cc1[N+](=O)[O-])C1NC(=O)NC1=O` (configuration not stated): the GI50 in experiment [1], in experiment [2], in experiment [3], in experiment [4], in experiment [5] and in [6] was > 100 µM (inactive) in each case. The GI50 in experiment [7], in experiment [8], in [9], in experiment [10], in experiment [11] and in experiment [12] was > 100 µM (inactive) in each case. For the same molecule, the GI50 is > 100 µM (inactive) in [13]; 27.9 µM (inactive) in [14]; > 100 µM (inactive) in experiment [15]; > 100 µM (inactive) in experiment [16]; > 100 µM (inactive) in [17].

For the molecule `C=C1C(=O)OC2CC3(C)C=CC(=O)C(=C)C3CC12` (configuration not stated), the GI50 in experiment [1] was 1.76 µM (inactive); in experiment [2] it was 1.36 µM (inactive); in experiment [3], 0.329 µM (active); in experiment [4] it was 2.6 µM (inactive); in experiment [5], 14.7 µM (inactive); in [6] it was 1.91 µM (inactive). Besides, the GI50 was 1.69 µM (inactive) in [7]; 2.59 µM (inactive) in experiment [8]; 2.18 µM (inactive) in experiment [9]; 3.24 µM (inactive) in experiment [10]; 1.72 µM (inactive) in experiment [11]; 3.73 µM (inactive) in experiment [12]. The GI50 in experiment [13] is 0.938 µM (active); in experiment [14], 3.79 µM (inactive); in [15], 1.64 µM (inactive); in experiment [16], 1.5 µM (inactive); in experiment [17] it was 1.75 µM (inactive).

For `COc1ccc2c(c1OC)C(=O)c1cnccc1C2=O`, the GI50 in [1], in experiment [2], in experiment [3], in experiment [4], in [5] and in [6] was > 100 µM (inactive) each time. The GI50 in experiment [7], in [8], in [9], in experiment [10], in experiment [11] and in experiment [12] was > 100 µM (inactive) throughout. Further, the GI50 in experiment [13], in [14], in experiment [15], in [16] and in [17] was > 100 µM (inactive) throughout.

As for `COc1cccc(/C(C=O)=C(\Cl)c2ccc(OC)c(OC)c2)c1`, the GI50 in experiment [1] is 16.1 µM (inactive); in [2], 29.2 µM (inactive); in experiment [3], 12.9 µM (inactive); in experiment [4] it was 16.1 µM (inactive); in experiment [5] it was 12.3 µM (inactive); in [6], 20.6 µM (inactive). Also, the GI50 is 12.2 µM (inactive) in experiment [7]; 13.3 µM (inactive) in [8]; 16 µM (inactive) in experiment [9]; 19 µM (inactive) in experiment [10]; 12.7 µM (inactive) in [11]; 5.04 µM (inactive) in experiment [12]. The GI50 is 13.5 µM (inactive) in experiment [13]; 13.9 µM (inactive) in [14]; 14.4 µM (inactive) in experiment [15]; 4.63 µM (inactive) in experiment [16]; 14.5 µM (inactive) in experiment [17].

For the molecule `CC1OC(OC2C[C@](O)(C(=O)CF)Cc3c(O)c4c(c(O)c32)C(=O)c2ccccc2C4=O)CC(N)C1O` (some centres not stated), the GI50 in experiment [1] is < 0.01 µM (active); in experiment [2] it was < 0.01 µM (active); in experiment [3] it was 0.0484 µM (active); in experiment [4], 0.163 µM (active); in [5] it was < 0.01 µM (active); in experiment [6], 0.0483 µM (active). Also, the concentration for 50% growth inhibition (GI50) in experiment [18] is 74.6 nM (active); in [20] it was 0.108 µM (active); in experiment [7], < 0.01 µM (active); in experiment [8] it was < 0.01 µM (active); in [9], 0.152 µM (active); in [10], 0.0719 µM (active). Also, the GI50 in experiment [11] was < 0.0113 µM (active); in experiment [12] it was 0.0161 µM (active); in experiment [13] it was < 0.01 µM (active); in experiment [19] it was 0.0106 µM (active); in [14], < 0.013 µM (active); in experiment [15] it was 0.0794 µM (active). Further, the values for the GI50 in [16] and in experiment [17] were < 0.0104 µM (active) and 0.0392 µM (active), respectively.

As for `CN(C)c1ccc(C(=C2C=CC(=[N+](C)C)C=C2)c2ccc(N(C)C)cc2)cc1` [GENTIAN VIOLET], the GI50 in experiment [1] was 0.0923 µM (active); in experiment [2] it was 0.34 µM (active); in experiment [3], 0.0673 µM (active); in experiment [4], 0.216 µM (active); in experiment [5], 0.375 µM (active); in [6], 0.196 µM (active). The GI50 in [7] is 0.0594 µM (active); in experiment [8], 0.0574 µM (active); in experiment [9] it was 0.264 µM (active); in experiment [10] it was 0.202 µM (active); in experiment [11] it was 0.0809 µM (active); in experiment [12], 0.182 µM (active). In addition, the GI50 in experiment [13] was 0.211 µM (active); in experiment [14] it was 0.0354 µM (active); in experiment [15] it was 0.176 µM (active); in [16], 0.143 µM (active); in experiment [17] it was 0.318 µM (active).

With `O=C(O)Cc1cccc2c(=O)cc(-c3ccccc3)oc12` [MITOFLAXONE], the GI50 in experiment [1] is 71.4 µM (inactive); in [2] it was 142 µM (inactive); in [3] it was > 250 µM (inactive); in experiment [4], > 250 µM (inactive); in experiment [5], 243 µM (inactive); in experiment [18], > 250000 nM (inactive). Further, the GI50 in experiment [20] was 385 µM (inactive); in [7] it was > 250 µM (inactive); in experiment [8] it was > 250 µM (inactive); in experiment [9], 185 µM (inactive); in experiment [10] it was 242 µM (inactive); in experiment [11], 230 µM (inactive). Moreover, the GI50 in [12] was 212 µM (inactive); in experiment [13], 321 µM (inactive); in [19] it was > 250 µM (inactive); in experiment [14], > 250 µM (inactive); in experiment [15], > 250 µM (inactive); in experiment [16], > 250 µM (inactive). The GI50 in experiment [17] was 147 µM (inactive).
